Our source for the LC retention time values is the RepoRT retention time repository (doi:10.1016/j.foodchem.2018.11.056).

The nature of this series: RP, Thermo Scientific Hypersil GOLD aQ, 100 × 2.1 mm, 1.9 µm, 30 °C, 0.3 mL/min, estimated dead time 0.73 min; A: water + 0.1% formic acid; B: methanol + 0.1% formic acid + 4 mM ammonium formate; gradient (min/%B) 0/0 1/0 8/100 10/100. Conditions: stereoisomer not certain.

Regarding `CC(C)CC1C(=O)N2CCCC2C2(O)OC(NC(=O)C3C=C4c5cccc6[nH]cc(c56)CC4N(C)C3)(C(C)C)C(=O)N12` (stereo not given), the LC retention time is 6.5 min.
With `C=C1C2OC3C=C(C)C(=O)C(O)C3(CO)C1(C)CC2O` (stereo not given), the LC retention time was 4.77 min.
For `CC1=CC2OC3C(O)C(O)C(C)(C2(CO)CC1O)C31CO1` (stereo not given), the LC retention time was 3.76 min.
Take `CC1=CC2c3cccc4[nH]cc(c34)CC2N(C)C1` (stereo not given): the LC retention time was 5.35 min.
Regarding `CC1CCC2C(C)(C)C(O)CCC2(C)C12Cc1c(O)cc3c(c1O2)CNC3=O` (stereo not given), the LC retention time is 7.51 min.
Turning to `O=c1cc(CO)occ1O`, the LC retention time was 2.6 min.
Consider `COC1C(OC(=O)C=CC=CC=CC=CC(=O)O)CCC2(CO2)C1C1(C)OC1CC=C(C)C` (stereo not given), for which the LC retention time is 7.52 min.
For `C=CC(C)(C)C12CC3C(=O)NC(=Cc4cnc[nH]4)C(=O)N3C1Nc1ccccc12` (stereo not given), the LC retention time was 6.61 min.
Turning to `CC(=O)OCC12CC(OC(=O)CC(C)C)C(C)=CC1OC1C(O)C(O)C2(C)C12CO2` (stereo not given), the LC retention time was 6.52 min.
Turning to `C=CC(C)(C)C12C=C(O)C(=O)N3C(=Cc4cnc[nH]4)C(=O)NC31N(OC)c1ccccc12` (stereo not given), the LC retention time is 6.11 min.
On to `CN1C(=O)C23CC4=CC=CC(O)C4N2C(=O)C1(CO)SS3` (stereo not given), for which the LC retention time is 5.48 min.
On to `CC(C)CC1C(=O)N2CCCC2C2(O)OC(C)(NC(=O)C3C=C4c5cccc6[nH]cc(c56)CC4N(C)C3)C(=O)N12` (stereo not given), for which the LC retention time was 6.11 min.
`COc1ccc2c3c4n(c2c1)C(C=C(C)C)OOC(C)(C)CC4N1C(=O)C2CCCN2C(=O)C1(O)C3O` (stereo not given): the LC retention time is 7.33 min.
For `CC(C)C1(NC(=O)C2C=C3c4cccc5[nH]cc(c45)CC3N(C)C2)OC2(O)C3CCCN3C(=O)C(Cc3ccccc3)N2C1=O` (stereo not given) the value was 6.55 min.
The figure for `COc1c(C)c2c(c(O)c1CC=C(C)CCC(=O)O)C(=O)OC2` is 6.77 min; for `COc1cc2c(c3oc4cccc(O)c4c(=O)c13)C1C=COC1O2` (stereo not given) it is 7.49 min.
With `COc1cc2c(c3oc(=O)c4c(c13)CCC4=O)C1C=COC1O2` (stereo not given), the LC retention time was 6.26 min.
Turning to `CC1Cc2ccc(C(=O)NC(Cc3ccccc3)C(=O)O)c(O)c2C(=O)O1` (stereo not given), the LC retention time was 6.78 min.
For `CC(=O)OCC12CC(OC(=O)CC(C)C)C(C)=CC1OC1C(O)C(OC(C)=O)C2(C)C12CO2` (stereo not given) the value was 6.78 min; for `CC(=O)OCC12CC(O)C(C)=CC1OC1C(O)C(OC(C)=O)C2(C)C12CO2` (stereo not given), 4.9 min.
The figure for `CC(=O)OCC12C(C=C(C)C(=O)C1O)OC1C(O)CC2(C)C12CO2` (stereo not given) is 5.25 min.
Regarding `CC(=O)OC1C(O)C2OC3C=C(C)C(=O)C(O)C3(CO)C1(C)C21CO1` (stereo not given), the LC retention time is 4.69 min.
For the compound `COc1cc2c(c3oc(=O)c4c(c13)CCC4=O)C1CCOC1O2` (stereo not given), the LC retention time was 6.11 min.
The figure for `CCCCC(C)C(OC(=O)CC(CC(=O)O)C(=O)O)C(CC(C)CCCCCCC(O)CC(O)C(C)N)OC(=O)CC(CC(=O)O)C(=O)O` (stereo not given) is 7.19 min; for `CC1=C2C(=COC(C)C2C)C(=O)C(C(=O)O)=C1O` (stereo not given) it is 6.53 min.
For `CC1=CC2OC3C(O)CC(C)(C34CO4)C2(CO)C(O)C1=O` (stereo not given) the value was 4.26 min; for `O=C1C=C2C(=CCOC2O)O1` (stereo not given), 2.12 min; for `CCCCC(C)C(OC(=O)CC(CC(=O)O)C(=O)O)C(CC(C)CC(O)CCCCC(O)CC(O)C(C)N)OC(=O)CC(CC(=O)O)C(=O)O` (stereo not given), 6.81 min.
For `COc1cc2c(c3oc(=O)c4c(c13)CCOC4=O)C1C=COC1O2` (stereo not given), the LC retention time is 5.89 min.
Turning to `CC1CCCC(O)CCCCCc2cc(O)cc(O)c2C(=O)O1` (stereo not given), the LC retention time is 6.88 min.
On to `COCC1OC(=O)c2coc3c2C1(C)C1=C(C3=O)C2CCC(=O)C2(C)CC1OC(C)=O` (stereo not given), for which the LC retention time was 6.14 min.
The figure for `CC(C)C1(NC(=O)C2CC3c4cccc5[nH]cc(c45)CC3N(C)C2)OC2(O)C3CCCN3C(=O)C(Cc3ccccc3)N2C1=O` (stereo not given) is 6.46 min.
As for `CC(=O)OC1CC2(C)C3(CO3)C1OC1C=C(C)C(=O)C(O)C12CO` (stereo not given), the LC retention time was 5.49 min.
Turning to `COc1cc2c(c3oc(=O)c4c(c13)CCC4=O)C1(O)C=COC1O2` (stereo not given), the LC retention time is 5.77 min.
Take `CC1=CC2OC3C(O)C(O)C(C)(C34CO4)C2(CO)C(O)C1=O` (stereo not given): the LC retention time is 3.7 min.
On to `CC1CCCC(=O)CCCCCc2cc(O)cc(O)c2C(=O)O1` (stereo not given), for which the LC retention time is 7.1 min.
The figure for `CC1CCCC(=O)CCCC=Cc2cc(O)cc(O)c2C(=O)O1` (stereo not given) is 7.16 min; for `CCCCC(C)C(OC(=O)CC(CC(=O)O)C(=O)O)C(CC(C)CC(O)CCCCCCC(O)C(C)N)OC(=O)CC(CC(=O)O)C(=O)O` (stereo not given) it is 6.99 min.
As for `COc1cc(=O)oc(C=CC=CC=CC(C)=CC2(C)OC(C)C(C)(O)C2O)c1C` (stereo not given), the LC retention time was 7.23 min.
The figure for `CC1=CC2OC3C(OC4OC(CO)C(O)C(O)C4O)CC(C)(C34CO4)C2(CO)C(O)C1=O` (stereo not given) is 4.29 min; for `CC(C)CC1NC(=O)C(C)N(C)C(=O)CNC(=O)C(=Cc2ccccc2)N(C)C1=O` (stereo not given) it is 6.66 min; for `Cc1cc(O)cc2oc(=O)c3c(O)cc(O)cc3c12` it is 6.89 min.
Consider `CC1=CC2OC3C(O)C(O)C(C)(C2(CO)CC1OC(=O)CC(C)C)C31CO1` (stereo not given), for which the LC retention time was 6.17 min.
Regarding `CC(C)(O)C1OC2CCC3(C)C(O)(CCC4Cc5c([nH]c6ccccc56)C43C)C2=CC1=O` (stereo not given), the LC retention time was 7.81 min.
`COc1cc2c(c3oc(=O)c4c(c13)CCOC4=O)C1CCOC1O2` (stereo not given): the LC retention time is 5.8 min.
